US5849753A, “Pyridyl imidazole derivatives and processes for the preparation thereof” (Korea Research Institute of Chemical Technology, priority 1994, dated 1998)

Key:
[1] = tested on: angiotensin II receptor; experiment: Angiotensin II Receptor Binding Assay ([3H] angiotensin II binding inhibition); conditions: [3H] angiotensin II ligand; 60 minutes, 25° C.; test concentration not given
How it was run: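 Rat membranes (SD adrenal cortex or medulla, Wistar liver) in 50 mM Tris pH 7.2, 5 mM MgCl2, 0.25% BSA were incubated with [3H]angiotensin II and test compound at graded concentrations for 60 min at 25 °C. Bound radioactivity was collected by GF/C filtration and scintillation counting, and percent binding inhibition was calculated versus untreated and blank.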

[2] = tested on: renal hypertensive rat; experiment: Blood pressure lowering effect in renal hypertension (renal hypertensive rats, intravenous or oral); type: in vivo, male Sprague-Dawley rats; conditions: 3 mg, read-out: Maxium Blood Pressure Lowering Effect(%)
How it was run: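 Renal hypertension induced in male Sprague-Dawley rats by complete left renal artery ligation at 4 weeks of age; rats with systolic pressure above 180 mmHg at 6–8 days were used. Compounds given i.v. (in 0.05N KOH) or p.o. (Tween 80 suspension); blood pressure and heart rate recorded via carotid catheter up to 24 h, compared with losartan.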

[3] = tested on: furosemide-administered dogs; experiment: Duration of action in furosemide-administered dogs; type: in vivo, dog; conditions: for blood pressure lowering effect with time: 1 mg, per os
Method: The test dogs were anesthetized with 30 mg/kg of pentobarbital sodium by intravenous injection and the left femoral artery and femoral vein were separated carefully. Silicone catheter, specially prepared and filled with saline treated with heparin(1,000 IU/ml), was cannulated into the blood vessels. After the surgery, the dogs were constrained to measure their blood pressure continuously with Gould 2000 physiograph adapted to a Grass P23 XL pressure transducer; and their heart rates were monitored with ECG/Biotacho amplifier. The dogs were tested at least 2 days after the surgery.
10 mg/kg of furosemide was injected intramuscularly 18 hours(in case of intravenous injection, 2 hours) before the beginning of the test (administration of the test compound) to improve the activity of renin in blood plasma. After the injection of furosemide, neither food nor water was provided. […] The blood pressure and heart rate were measured up to 8 hours after the administration of each test compound.
The compound of Example 8 and the Merck compound were administered orally to the furosemide-administrated dogs as in test 3(i), and blood pressure lowering effect was measured with time.

## CCCCc1nc2cc(-c3ccccn3)c(C(OC)OC)nc2n1Cc1ccc(-c2ccccc2-c2nnn[nH]2)cc1 [Example 8, 2-butyl-5-dimethoxymethyl-6-(pyridin-2-yl)-3-[2'-(1H-tetrazol-5-yl)-biphenyl-4-ylmethyl]-3H-imidazo[4,5-b]pyridine]
[1]
  Binding Inhibition(%): 93.4%
[2]
  change in vivo at 3 mg: -50%
[3]; 0 min
  blood pressure lowering effect with time: 0%
[3]; 10 min
  blood pressure lowering effect with time: 0%
[3]; 20 min
  blood pressure lowering effect with time: -8%
[3]; 30 min
  blood pressure lowering effect with time: -16.2%
[3]; 60 min
  blood pressure lowering effect with time: -23.8%
[3]; 90 min
  blood pressure lowering effect with time: -26.0%
[3]; 120 min
  blood pressure lowering effect with time: -30.0%
[3]; 150 min
  blood pressure lowering effect with time: -31.7%
[3]; 180 min
  blood pressure lowering effect with time: -31.7%
[3]; 210 min
  blood pressure lowering effect with time: -31.2%
[3]; 240 min
  blood pressure lowering effect with time: -32.7%
[3]; 270 min
  blood pressure lowering effect with time: -33.9%
[3]; 300 min
  blood pressure lowering effect with time: -34.9%
[3]; 330 min
  blood pressure lowering effect with time: -37.0%
[3]; 360 min
  blood pressure lowering effect with time: -35.5%
[3]; 390 min
  blood pressure lowering effect with time: -36.4%
[3]; 420 min
  blood pressure lowering effect with time: -34.9%
[3]; 450 min
  blood pressure lowering effect with time: -33.0%
[3]; 480 min
  blood pressure lowering effect with time: -33.0%
[3]; furosemide-administered dogs, oral, as shown in Table 6
  maximum blood pressure lowering effect lasted up to (after the administration): up to 8 hours
